Patent US20040235922A1, “Compositions and methods for inducing adipose tissue cell death” (priority 2003, published 2004)
“Also recorded” adds a separate entry of the source. Counter-ions that a name gives are not always drawn. Marks after values point to notes of the source that are not given here.

Columns and labels:
[1] = system: Epi/Par fat pads (white adipose tissue); assay: Adipose tissue apoptosis assay, % DNA fragmentation (Example 1); assay type: in vivo, mice; conditions: 21 days
Protocol: (§1) Animals: Five week old male (n=20) and female (n=20) ICR mice (Harlan Research Laboratories, Indianapolis, Ind.) were allowed to acclimate for one week prior to the experiment start date. Animals were housed singly in suspended wire cages and were provided ground rodent chow (ProLab® RMH 2500; Purina Mills, St. Louis, Mo.) and water ad libitum. Ambient room temperature was maintained and the light/dark cycle was 0600/1800 hours, respectively. Animals were cared for in accordance with the Guide for the Care and Use of Laboratory Animals (Institute of Laboratory Animal Resources Commission on Life Sciences National Research Council. Guide for the Care and Use of Laboratory Animals. National Academy of Sciences, 1996). Prior to the start of the study, animals were briefly anesthetized with isofluorane and an IPPT-200 transponder (programmable ID and temperature, BMDS, Seaford, Del.) was implanted subcutaneously between the scapulae.
(§2) Materials: Test articles included clenbuterol (Sigma Chemical Company, St. Louis, Mo., item # C5423) and ractopamine hydrochloride—Paylean® 9 (Elanco Animal Health, Indianapolis, Ind.). Clenbuterol is available as a pure product, and ractopamine is readily available as a type A medicated article. Paylean® 9 contains about 20 g ractopamine hydrochloride per kilogram in a ground corncob base. In order to achieve doses of 200 and 800 ppm it was necessary to add about […] of product per kilogram of diet. Control and clenbuterol diets were prepared with about 80 g of alphacel, which is a diluent used to mimic the effect of the corncob in the ractopamine product. The dose of clenbuterol used in this experiment was similar to those used in previous experiments with mice (Agbenyega E T, and Wareham A C. Effect of clenbuterol on skeletal muscle atrophy in mice induced by the glucocorticoid dexamethasone. Comp Biochem Physiol Comp Physiol 1992;102:141-145, Rothwell N. J., and Stock M J. Modification of body composition by clenbuterol in normal and dystrophic (mdx) mice. Biosci Rep 1985;5:755-760, Hyltander A, Svaninger G, and Lundholm K. The effect of clenbuterol on body composition in spontaneously eating tumour-bearing mice. Biosci Rep 1993;13:325-331, Hayes A, and Williams DA. Long-term clenbuterol administration alters the isometric contractile properties of skeletal muscle from normal and dystrophin-deficient mdx mice. Clin Exp Pharmacol Physiol 1994;21:757-765, Dupont-Versteegden EE. Exercise and clenbuterol as strategies to decrease the progression of muscular dystrophy in mdx mice. J Appl Physiol 1996;80:734-741).
DNA Isolation and Apoptosis Assay: Only the Epi and Par fat pads had sufficient tissue for the apoptosis assay. Apoptosis was assayed in two ways: DNA isolated from fat tissue was separated into two fractions: fragmented and genomic DNA. First, the fragmented DNA was run on an agarose gel in order to identify a ladder pattern of internucleosomal DNA degradation that is characteristic of apoptosis. Second, apoptosis was quantified as the ratio of fragmented- to total-DNA, multiplied by 100. Briefly, approximately 50 mg of the Epi or Par white adipose tissue was homogenized in lysis buffer (10 mM Tris-HCL, pH 8.0, 10 mM EDTA, pH 8.0; 0.5% Triton X-100) and centrifuged at 14,000× g for 15 min to separate fragmented DNA from genomic DNA. The supernatant, containing fragmented DNA, was extracted with phenol-chloroform-isoamyl alcohol (25:24:1), and the DNA was precipitated by adding polyacryl carrier (Molecular Research Center, Inc., Cincinnati, Ohio) and ethanol. Genomic (non-fragmented) DNA was extracted from the pellet with DNAzol and the polyacryl carrier. DNA in each fraction was quantified by the PicoGreen method (Molecular Probes, Inc., Eugene, Oreg.) and fluorescence was measured using a SpectroMax Gemini (Molecular Devices).
Statistical Analysis: Analysis of variance (SAS) was used to determine significance of treatment and gender effects. […]

male and female ICR mice = assay: 21 day oral (diet) treatment of mice: selected tissue weights, fat pads, BAT, muscle, organs (Example 1); assay type: in vivo; conditions: 21 days; for BAT tissue weight, mean / Biceps tissue weight, mean / Epi/Par tissue weight, mean / Ing tissue weight, mean / Rp tissue weight, mean: male and female mice; for Par weight, mean: females; for Epi weight, mean: males
Protocol: (§3) The effects of clenbuterol, a β2-AR agonist, and ractopamine, a β1/β2-AR agonist, on growth, adiposity and adipose tissue apoptosis in male and female mice have been tested by feeding diets containing control, 200 ppm clenbuterol, or 200 or 800 ppm ractopamine. Food intake (FI) was measured daily; body weight (BW) and temperatures (BT) were measured on days 0, 3, 7, 10, 14, 17, and 20. On day 21 mice were sacrificed, body composition was determined using PIXImus densitometry, and muscle and adipose tissues were collected. There were no treatment effects on BT, FI, BW, feed efficiency or body composition. Retroperitoneal (Rp) and epididymal/parametrial (Epi/Par) fat pad masses were reduced in both 800 ppm ractopamine (40±3 and 207±20 mg, respectively) and clenbuterol (35±7 and 211±22 mg) treated mice compared to control (66±8 and 319±30 mg, p<0.05). Brown adipose tissue (BAT) mass was greater (p<0.05) in clenbuterol treated mice compared to other treatments. Adipose tissue apoptosis (% DNA fragmentation) was increased in Epi/Par fat pads in clenbuterol (5.2+1.1%) and 800 ppm ractopamine (4.1±0.8%) treated mice compared to control (1.7+0.4%, p<0.05).
as §1
as §2, with “1996;80:734-741). […]” for “1996;80:734-741).”

[2] = 21 day oral (diet) treatment of mice: body weight, food intake, feed efficiency, body temperature, body composition by PIXImus densitometry (Example 1); assay type: in vivo; conditions: 21 days, ICR mice
Protocol: as §3, §1, §2
Daily Observations: Food intake was measured daily, while body weight and body temperatures were measured on days 0, 3, 7, 10, 14, 17, and 20 at approximately the same time of day (1300 hours) during the treatment period. […]

cardiac myocytes = conditions: via β1-AR stimulation; cited from earlier work
adipocytes = conditions: leptin administration; cited from earlier work
[3] = 200 ppm clenbuterol, 800 ppm ractopamine in diet, p<0.05, hydrochloride

CC(CCc1ccc(O)cc1)NCC(O)c1ccc(O)cc1 (racemic) [Ractopamine, ractopamine hydrochloride]
Percent DNA fragmentation (apoptosis) in the Epi/Par fat pad compared to control [1, 3]: significant increase in apoptosis
Adipose tissue apoptosis (% DNA fragmentation) in Epi/Par fat pads ([1]; 800 ppm in diet, mice, control 1.7±0.4%): 4.1±0.8%
DNA fragmentation in retroperitoneal or inguinal fat pads ([1]; diet, mice): Neither clenbuterol nor ractopamine treatments increased
Rp and Epi/Par fat pad weights compared to control (male and female ICR mice; [3]): reduced; also recorded: decreased
BAT tissue weight, mean (male and female ICR mice; 200 ppm in diet): .096
Biceps tissue weight, mean (male and female ICR mice; 200 ppm in diet): .128
Epi/Par tissue weight, mean (male and female ICR mice; 200 ppm in diet): .295
Ing tissue weight, mean (male and female ICR mice; 200 ppm in diet): .230
Rp tissue weight, mean (male and female ICR mice; 200 ppm in diet): .058
BAT tissue weight, mean (male and female ICR mice; 800 ppm in diet): .095
Biceps tissue weight, mean (male and female ICR mice; 800 ppm in diet): .158
Epi/Par tissue weight, mean (male and female ICR mice; 800 ppm in diet): .207
Ing tissue weight, mean (male and female ICR mice; 800 ppm in diet): .176
Rp tissue weight, mean (male and female ICR mice; 800 ppm in diet): .039
Retroperitoneal (Rp) fat pad mass (male and female ICR mice; 800 ppm in diet, mice, control 66±8 mg): 40 ± 3 mg
Epididymal/parametrial (Epi/Par) fat pad mass (male and female ICR mice; 800 ppm in diet, mice, control 319±30 mg): 207 ± 20 mg
Muscle mass / muscle weight, body protein or fat content (male and female ICR mice; diet, ICR mice): no effect
Par weight, mean (male and female ICR mice; 200 ppm in diet): .22^b
Par weight, mean (male and female ICR mice; 800 ppm in diet): .22^b
Epi weight, mean (male and female ICR mice; 200 ppm in diet): .36^a
Epi weight, mean (male and female ICR mice; 800 ppm in diet): .19^b
Cumulative Feed Intake ([2]; 200 ppm in diet): 5.92 g
Densitometry Bone Mineral Content ([2]; 200 ppm in diet): 0.67 g
Densitometry Fat ([2]; 200 ppm in diet): 3.00 g
Densitometry Lean ([2]; 200 ppm in diet): 25.63 g
Feed Efficiency ([2]; 200 ppm in diet): 15.8
Final Body Weight ([2]; 200 ppm in diet): 31.4 g
Weight Gain ([2]; 200 ppm in diet): 8.25 g
Cumulative Feed Intake ([2]; 800 ppm in diet): 6.39 g
Densitometry Bone Mineral Content ([2]; 800 ppm in diet): 0.67 g
Densitometry Fat ([2]; 800 ppm in diet): 3.01 g
Densitometry Lean ([2]; 800 ppm in diet): 27.42 g
Feed Efficiency ([2]; 800 ppm in diet): 16.6
Final Body Weight ([2]; 800 ppm in diet): 31.5 g
Weight Gain ([2]; 800 ppm in diet): 8.32 g
Effect on body temperature, food intake, body weight, feed efficiency, body composition ([2]; diet, hydrochloride): not significantly affected; also recorded: Neither clenbuterol nor ractopamine affected

NC[C@H](O)c1ccc(O)c(O)c1 [norepinephrine]
Apoptosis of cardiac myocytes (cardiac myocytes): induce apoptosis

leptin: leptin, administration shown in previous experiments to increase apoptosis of adipocytes
Apoptosis of adipocytes (adipocytes): increase apoptosis
